Results taken from patent US9220760B2, “Method of modulating the proliferation of medullary thyroid carcinoma cells” (The Administrators of the Tulane Educational Fund, priority 2001, dated 2015).
Read-outs that look alike come from different tables or passages of the source. Where a SMILES comes first, the peptide text is derived from it. [ ]: non-standard residue; d: D form. Tic = O=C(O)[C@@H]1Cc2ccccc2CN1; Abu = CC[C@H](N)C(=O)O

Experiments:
human MTC cell line TT [1] = test: TT cell viability by Trypan Blue staining; assay type: cell-based
Description: (§1) After incubation, the cells were washed three times with ice-cold PBS and twice with 10% ice-cold trichloroacetic acid (TCA). TCA-precipitated material was solubilized in 500 μL 0.2 mol/L sodium hydroxide and 0.1% SDS. Cell-associated radioactivity was then counted in a scintillation spectrometer. Results (counts per min per well) were obtained by determining the mean value of at least six experiments in quadruplicate. The viability of TT cells in control and treated cultures was evaluated by Trypan blue staining both after 24 and 48 hours, and the number of viable cells was always 85-95%.

human SSTR2 = target: T1, human SSTR2 (Homo sapiens, UniProt P30874); test: SSTR2 mediated intracellular calcium mobilization in CHO-K1 cells; assay type: cell-based; conditions: 10^-7-10^-6 M, FIG. 1
T1 construct: expressed in transfected cells
T1 sequence (P30874 whole entry): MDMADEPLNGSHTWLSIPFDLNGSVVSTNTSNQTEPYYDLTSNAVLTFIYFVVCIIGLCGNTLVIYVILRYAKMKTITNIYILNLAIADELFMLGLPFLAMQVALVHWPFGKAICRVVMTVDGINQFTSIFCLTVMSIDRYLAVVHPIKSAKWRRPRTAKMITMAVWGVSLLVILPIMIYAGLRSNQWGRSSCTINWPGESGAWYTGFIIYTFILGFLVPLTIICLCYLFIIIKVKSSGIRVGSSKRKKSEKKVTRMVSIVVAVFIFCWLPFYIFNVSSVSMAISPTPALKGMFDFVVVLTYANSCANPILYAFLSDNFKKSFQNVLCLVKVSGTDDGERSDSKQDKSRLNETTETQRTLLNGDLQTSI
Description: Biological activity of SSTR selective agonists and antagonists was evaluated by the calcium mobilization assay in CHO-K1 cells expressing the human SSTR2 or SSTR5. The cells were harvested by incubating in a 0.3% EDTA/phosphate buffered saline solution (25° C.), and washed twice by centrifugation. The washed cells were resuspended in Hank's—buffered saline solution (HBSS) for loading of the fluorescent Ca^2+ indicator Fura-2AM. Cell suspensions (approximately 10^6 cells/ml) were incubated with 2 mM Fura-2AM for 30 min at 25° C. Unloaded Fura-2AM was removed by centrifugation twice in HBBS, and the final suspensions were transferred to a spectrofluorometer (Hitachi F-2000) equipped with a magnetic stirring mechanism and a temperature-regulated cuvette holder. After equilibration to 37° C., the SS analogues were added for measurement of intracellular Ca^2+ mobilization.

human SSTR1 = human SSTR1 (Homo sapiens, UniProt P30872); test: Radioligand membrane receptor binding assay, SSTR1; conditions: CHO-K1 membranes, [125I-Tyr11]SS-14; read-out: Human somatostatin receptor subtype specificity, Ki, receptor subtype 1
human SSTR1, sequence (P30872 whole entry): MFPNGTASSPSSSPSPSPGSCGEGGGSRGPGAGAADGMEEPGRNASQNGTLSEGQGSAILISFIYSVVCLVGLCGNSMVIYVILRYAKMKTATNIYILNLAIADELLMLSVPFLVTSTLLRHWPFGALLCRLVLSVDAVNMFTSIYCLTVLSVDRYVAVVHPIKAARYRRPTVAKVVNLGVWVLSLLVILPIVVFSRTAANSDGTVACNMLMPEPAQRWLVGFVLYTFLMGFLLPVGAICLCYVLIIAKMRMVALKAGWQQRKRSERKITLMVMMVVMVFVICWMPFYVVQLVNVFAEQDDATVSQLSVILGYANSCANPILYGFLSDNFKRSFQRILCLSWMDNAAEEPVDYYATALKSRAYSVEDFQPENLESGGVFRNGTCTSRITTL
Description: Specificity and selectivity of the analogues were determined by Radioligand Binding Assay on CHO-K1 cells stably transfected with each of the SSTR subtypes, as follows.
Membranes for in vitro receptor binding assays were obtained by homogenizing the CHO-K1 cells expressing the SSTR's subtypes in ice-cold 50 mM Tris-HCl and centrifuging twice at 39000 g (10 min), with an intermediate resuspension in fresh buffer. The final pellets were resuspended in 10 mM Tris-HCl for assay. […] The final assay volume was 0.3 ml. […] The incubations were terminated by rapid filtration through GF/C filters (pre-soaked in 0.3% polyethylenimine) using a Brandel filtration manifold. Each tube and filter were then washed three times with 5 ml aliquots of ice-cold buffer.
Subtype affinity was determined by radioligand membrane receptor binding assays in Chinese hamster ovary cells expressing human SSR2 gene or SSR5 cDNA

human MTC cell line TT [2] = test: [3H]thymidine incorporation (DNA synthesis) in TT cells; assay type: cell-based; conditions: for Change of [3H]thy incorporation: p<0.05
Description: Cells were incubated in 24-well plates for 48 hours in a culture medium supplemented with SS analogues at various concentrations (10^−9, 10^−8, 10^−7, and 10^−6 M). Control wells were treated with vehicle solution and [^3H]thy incorporation was measured as radioactivity in TCA-precipitated material. Data from six individual experiments evaluated independently in quadruplicate are expressed as the mean±SEM percent [^3H]thy incorporation inhibition versus untreated control cells *P<0.05 and **P<0.01 vs. control.
Control wells were treated with vehicle solution. [^3H]thy incorporation was measured as radioactivity in TCA-precipitated material. Data from six individual experiments were evaluated independently with four replicates expressed as the mean±SEM percent [^3H]thy incorporation inhibition versus untreated control cells *P<0.05 and **P<0.01 vs. control.
The effects of SSTR selective agonists and antagonists on TT cell DNA synthesis were assessed by determining the rate of [^3H]thymidine ([^3H]thy) incorporation, as previously described (Davis L, et al., 1994 In: Basic methods in Molecular Biology, 2nd edition, Appleton & Lange, Norwalk, Conn., USA: 611-646, degli Uberti E C, et al., 1991 J Clin Endocrinol Metab 72: 1364-1371). TT cells were plated in 24-multiwell plates (10^5 cells/well) and incubated for 48 hours in a medium supplemented with 10% FBS in the presence of [^3H]thy (1.5 μCi/mL; 87 Ci/mmol) with or without each SS analogue at concentrations ranging from 10^−6 to 10^−9 M. Treatments were renewed by adding fresh analogues to the wells after the first 24 h of incubation, without removing the medium.
as §1

human MTC cell line TT [3] = test: TT cell proliferation ([…] 96 MTS assay, viable cell number); assay type: cell-based
Description: Cells were incubated in 96-well plates for 48 hours in a culture medium supplemented with SS analogues at various concentrations (10^−9, 10^−8, 10^−7, and 10^−6 M). Control wells were treated with vehicle solution. TT cell proliferation was measured as absorbance at […] of each well. Data from six individual experiments were evaluated independently with eight replicates expressed as the mean±SEM percent cell proliferation inhibition versus untreated control cells *P<0.05 and **P<0.01 vs. control.
(§2) Control wells were treated with vehicle solution. TT cell proliferation was measured as absorbance at […] of each well. Data from six individual experiments were evaluated independently with eight replicates expressed as the mean±SEM percent cell proliferation inhibition versus untreated control cells *P<0.05 and **P<0.01 vs. control.
as §2, with “solution and” for “solution.”
The effects of SSTR selective agonists and antagonists on TT cell proliferation were assessed by the […] […] The absorbance at 490 nm was then recorded using an ELISA plate reader (EASIA Reader, Medgenix, Camarillo, Calif.). […]

## CC(C)[C@@H]1NC(=O)[C@H](CCCCN)NC(=O)[C@@H](Cc2c[nH]c3ccccc23)NC(=O)[C@H](Cc2ccc(O)cc2)NC(=O)[C@@H](NC(=O)[C@H](N)Cc2ccc3ccccc3c2)CSSC[C@@H](C(=O)N[C@H](C(N)=O)[C@@H](C)O)NC1=O [Compound 1, D-Nal-cyclo[Cys-Tyr-D-Trp-Lys-Val-Cys]-Thr-NH2]
Human MTC cell line TT [1]; 10^-7 M
  Cytotoxic action by Trypan Blue staining: not associated with any cytotoxic action

## CC[C@@H]1NC(=O)[C@H](CCCCN)NC(=O)[C@@H](Cc2c[nH]c3ccccc23)NC(=O)[C@H](Cc2ccc(O)cc2)NC(=O)[C@@H]2Cc3ccccc3CN2C(=O)[C@H](Cc2ccccc2)NC1=O [Compound 2, cyclo[Tic-Tyr-D-Trp-Lys-Abu-Phe]] (cyclo([Tic]Y[dW]K[Abu]F))
Human SSTR2
  Intracellular Ca2+ mobilization (ratio stimulated/basal) in SSTR2 expressing cells: stimulated significant intracellular Ca^2+ mobilization
Human MTC cell line TT [1]
  Cytotoxic action by Trypan Blue staining: not associated with any cytotoxic action

## CC[C@@H]1NC(=O)[C@H](CCCCN)NC(=O)[C@@H](Cc2c[nH]c3ccccc23)NC(=O)[C@H](Cc2ccc(O)cc2)NC(=O)[C@@H](NC(=O)[C@@H](Cc2ccccc2)NC(=O)CN2CCN(CCO)CC2)CSSC[C@@H](C(=O)N[C@H](C(N)=O)[C@@H](C)O)NC1=O [Compound 3, 4-(2-Hydroxyethyl)-1-piperazinylacetyl-D-Phe-cyclo(Cys-Tyr-D-Trp-Lys-Abu-Cys)-Thr-NH2]
Human SSTR1
  Ki: 5.21 µM
Human MTC cell line TT [2]; 10^-8 M and 10^-7 M
  Significant reduction of [3H]thy incorporation: not
Human MTC cell line TT [2]; 10^-9 M
  Significant reduction of [3H]thy incorporation: significantly (p<0.05) reduced
Human MTC cell line TT [2]; 10^-9 M, 48 h
  Change of [3H]thy incorporation: −17%

## CC[C@@H]1NC(=O)[C@H](CCCCN)NC(=O)[C@@H](Cc2c[nH]c3ccccc23)NC(=O)[C@H](Cc2ccc(O)cc2)NC(=O)[C@@H](NC(=O)[C@@H](Cc2ccccc2)NS(=O)(=O)CCN2CCN(CCO)CC2)CSSC[C@@H](C(=O)N[C@H](C(N)=O)[C@@H](C)O)NC1=O [Compound 4, 4-(2-Hydroxyethyl)-1-piperazine-2-ethanesulfonyl-D-Phe-cyclo(Cys-Tyr-D-Trp-Lys-Abu-Cys)-Thr-NH2]
Human MTC cell line TT [2]; 10^-8 M and 10^-7 M
  Significant reduction of [3H]thy incorporation: not
Human MTC cell line TT [2]; 10^-9 M
  Significant reduction of [3H]thy incorporation: significantly (p<0.05) reduced
Human MTC cell line TT [2]; 10^-9 M, 48 h
  Change of [3H]thy incorporation: −13%

## C[C@@H](O)[C@H](NC(=O)[C@H](Cc1ccccc1)NC(=O)[C@@H](NC(=O)[C@H](CCCCN)NC(=O)[C@@H](Cc1c[nH]c2ccccc12)NC(=O)[C@H](Cc1c[nH]c2ccccc12)NC(=O)[C@H](Cc1ccccc1)NC(=O)[C@H](N)Cc1ccccc1)[C@@H](C)O)C(N)=O [Compound 5, D-Phe-Phe-Trp-D-Trp-Lys-Thr-Phe-Thr-NH2]
Human MTC cell line TT [3]; 10^-8 M, not statistically different from control
  Increase of TT cell proliferation: up to 11%
Human MTC cell line TT [3]; 10^-9 M to 10^-6 M with Compound 2 10^-7 M, FIG. 8 lower panel
  Effect on suppression of TT cell proliferation produced by Compound 2: dose-dependently prevented
Human MTC cell line TT [2]; 10^-9 M to 10^-6 M with Compound 2 10^-7 M, FIG. 8 upper panel
  Effect on suppression of TT cell [3H]thy incorporation produced by Compound 2: dose-dependently prevented
Human MTC cell line TT [2]; 10^-9 to 10^-6 M, 48 h
  Increase of [3H]thy incorporation: 80-175%
